The text below walks through data of patent US20250346585A1 (Alexion Pharmaceuticals, Inc., priority 2022, published 2025).

Chain of Human complement C1s enzyme (P09871 438-688 limits assumed): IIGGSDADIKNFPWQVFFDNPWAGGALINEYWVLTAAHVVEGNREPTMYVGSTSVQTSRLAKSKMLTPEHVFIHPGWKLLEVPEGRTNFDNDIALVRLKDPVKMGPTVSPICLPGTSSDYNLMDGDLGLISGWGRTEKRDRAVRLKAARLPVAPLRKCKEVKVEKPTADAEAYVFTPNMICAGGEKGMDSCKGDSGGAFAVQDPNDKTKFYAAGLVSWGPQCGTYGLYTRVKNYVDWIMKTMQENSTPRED
Chain of Human complement C1s enzyme (P09871 16-437 partner limits assumed): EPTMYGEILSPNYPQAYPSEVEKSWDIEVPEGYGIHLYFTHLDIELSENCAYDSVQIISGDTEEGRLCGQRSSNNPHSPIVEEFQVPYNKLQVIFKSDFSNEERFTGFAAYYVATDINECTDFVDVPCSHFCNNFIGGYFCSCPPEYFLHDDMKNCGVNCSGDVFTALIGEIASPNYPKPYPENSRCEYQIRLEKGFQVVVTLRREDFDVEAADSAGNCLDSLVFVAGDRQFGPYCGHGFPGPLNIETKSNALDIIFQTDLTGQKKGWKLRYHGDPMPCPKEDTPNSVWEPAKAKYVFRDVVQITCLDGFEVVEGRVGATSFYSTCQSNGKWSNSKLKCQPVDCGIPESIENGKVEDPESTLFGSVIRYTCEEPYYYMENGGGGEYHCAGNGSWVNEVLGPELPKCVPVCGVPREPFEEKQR

The assay addresses Human complement C1s enzyme (Homo sapiens (Human), UniProt P09871). The assay can be described thus: Human C1s enzyme assay. Type of assay: biochemical. Particulars: Human C1s enzyme assay of Example 3; read-out: IC50 (Stars). Summed up: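 Purified serum-derived human C1s (1.16 nM final) preincubated 5 min at room temperature with compound in 50 mM Tris, 1 M NaCl, pH 7.5. Z-L-Lys-SBzl thioester substrate and DTNB added (100 μM each, final); A405 read every 30 s for 30 min. IC50 from nonlinear regression of reaction rates against compound concentration.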
For the molecule `C[C@@H](NC(=O)[C@@H]1CC2(CN1C(=O)CNC(=O)c1ccc3c(c1)-c1ccccc1C3(F)F)OCCO2)c1cc(-c2nnc[nH]2)cs1` [Compound 130, (S)—N—((R)-1-(4-(4H-1,2,4-triazol-3-yl)thiophen-2-yl)ethyl)-7-((9,9-difluoro-9H-fluorene-3-carbonyl)glycyl)-1,4-dioxa-7-azaspiro[4.4]nonane-8-carboxamide], the IC50 lay within 100 to 1000 nM.
In the case of `C[C@@H](NC(=O)[C@@H]1C[C@@H](OC(F)F)CN1C(=O)CNC(=O)c1ccc(C(F)(F)c2ccccc2)cc1)c1cc(C(=N)N)cs1` [Compound 131, (2S,4R)—N—((R)-1-(4-carbamimidoylthiophen-2-yl)ethyl)-1-((4-(difluoro(phenyl)methyl)benzoyl)glycyl)-4-(difluoromethoxy)pyrrolidine-2-carboxamide], the IC50 was less than 100 nM.
In the case of `C[C@@H](NC(=O)[C@@H]1C[C@@H](OC(F)F)CN1C(=O)CNC(=O)c1ccc2c(c1)-c1ccccc1C2(C)C)c1cc(C(=N)N)cs1` [Compound 132, (2S,4R)—N—((R)-1-(4-carbamimidoylthiophen-2-yl)ethyl)-4-(difluoromethoxy)-1-((9,9-dimethyl-9H-fluorene-3-carbonyl)glycyl)pyrrolidine-2-carboxamide], the IC50 is less than 100 nM.
For the molecule `C[C@@H](NC(=O)[C@@H]1C[C@](F)(COCCNC(=O)CC[C@H](NC(=O)CCCCCCCCCCCCCCCCC(=O)O)C(=O)O)CN1C(=O)CNC(=O)c1ccc2c(c1)-c1ccccc1C2(F)F)c1cc(C(=N)N)cs1` [Compound 133, 18-(((S)-4-((2-(((3R,5S)-5-(((R)-1-(4-carbamimidoylthiophen-2-yl)ethyl)carbamoyl)-1-((9,9-difluoro-9H-fluorene-3-carbonyl)glycyl)-3-fluoropyrrolidin-3-yl)methoxy)ethyl)amino)-1-carboxy-4-oxobutyl)amino)-18-oxooctadecanoic acid], the IC50 was less than 100 nM.
In the case of `CC(C)OC(=O)/N=C(/N)c1csc([C@@H](C)NC(=O)[C@@H]2CC3(CN2C(=O)CNC(=O)c2ccc4c(c2)-c2ccccc2C4(F)F)OCCO3)c1` [Compound 134, isopropyl ((E)-amino(5-((R)-1-((S)-7-((9,9-difluoro-9H-fluorene-3-carbonyl)glycyl)-1,4-dioxa-7-azaspiro[4.4]nonane-8-carboxamido)ethyl)thiophen-3-yl)methylene)carbamate], the IC50 is less than 100 nM.
For `C[C@@H](NC(=O)[C@@H]1CC2(CN1C(=O)CNC(=O)c1ccc3c(c1)-c1ccccc1C3(F)F)OCCO2)c1ccc(-c2ncc[nH]2)s1` [Compound 135, (S)—N—((R)-1-(5-(1H-imidazol-2-yl)thiophen-2-yl)ethyl)-7-((9,9-difluoro-9H-fluorene-3-carbonyl)glycyl)-1,4-dioxa-7-azaspiro[4.4]nonane-8-carboxamide], the IC50 was more than 1000 nM.
Turning to `COC[C@@]1(F)C[C@@H](C(=O)N[C@H](C)c2cc(C(=N)N)cs2)N(C(=O)CNC(=O)c2ccc(C(F)(F)c3ccccc3)cc2)C1` [Compound 136, (2S,4R)—N—((R)-1-(4-carbamimidoylthiophen-2-yl)ethyl)-1-((4-(difluoro(phenyl)methyl)benzoyl)glycyl)-4-fluoro-4-(methoxymethyl)pyrrolidine-2-carboxamide], the IC50 is less than 100 nM.
With `C[C@@H](NC(=O)[C@@H]1CC2(CN1C(=O)CNC(=O)c1ccc3oc4ccccc4c3c1)OCCO2)c1cc(C(=N)N)cs1` [Compound 137, (S)—N—((R)-1-(4-carbamimidoylthiophen-2-yl)ethyl)-7-((dibenzo[b,d]furan-2-carbonyl)glycyl)-1,4-dioxa-7-azaspiro[4.4]nonane-8-carboxamide], the IC50 was less than 100 nM.
As to `C[C@@H](NC(=O)[C@@H]1CC2(CN1C(=O)CNC(=O)c1ccc3c(c1)C(F)(F)c1ccccc1-3)OCCO2)c1cc(C(=N)N)cs1` [Compound 138, (S)—N—((R)-1-(4-carbamimidoylthiophen-2-yl)ethyl)-7-((9,9-difluoro-9H-fluorene-7-carbonyl)glycyl)-1,4-dioxa-7-azaspiro[4.4]nonane-8-carboxamide], the IC50 is less than 100 nM.
